Assay results: article PMC9386018, “A lymphatic-absorbed multi-targeted kinase inhibitor for myelofibrosis therapy” (Nature Communications, 2022)
Several values for one entry are separate records, joined by “and”; a condition that tells them apart may be missing. Identical values can stand only once.

Tests used:
[1] = tested on: MPL^W515L mouse model of myelofibrosis; assay: MPL^W515L MF mouse model: tibia bone marrow ADC by diffusion-weighted MRI; type: in vivo; settings: MPL^W515L mice, oral 400 mg kg^−1 daily
Method: Generation of the MPL^W515L mutant MF mouse model was similar to previously described methods. Briefly, female donor BALB/c mice were treated with 5-fluorouracil at 150 mg kg^−1 intraperitoneal for 5 d before harvesting bone marrow. Hematopoietic stem and progenitor cells were enriched with CD117 magnetic beads (Miltenyi Biotec), transduced with retrovirus containing MSCV-hMPL W515L-IRES-GFP, then 50,000 transduced HSPCs along with 300,000 total non-stem cells were injected intravenously into lethally irradiated female BALB/c recipients. Development of MF was evaluated by spleen volumes using MRI beginning ~14 d following bone marrow transplantation (BMT) as outlined below, continuing weekly until end of the study. Mice were separated into equal groups based on spleen size ~14–21 d post-BMT, then treated with vehicle (Maisine CC) or LP-182 at 400 mg kg^−1 daily by oral gavage for 14–28 d or until mice were euthanized using guidelines for end stage illness and humane endpoints. Untreated healthy control animals were used for experimental comparisons. […] Soluble protein extracts were isolated by centrifugation at 15,000 x g for 15 min at 4 °C, quantified using Micro BCA protein assay (Thermo Scientific), then mixed with reducing 6X SDS-PAGE loading dye, heated for 8 min at 95 °C, and stored at −20 °C until immuno-blot analysis. […]

[2] = Pathological and histological toxicity screening in healthy mice; type: in vivo, mouse; parameters: Hematology Analysis WBC: unit not given here; settings: for Body weight: Supplementary Figure 8a
Method: Female CD-1 mice were dosed orally with vehicle (Maisine CC; n = 5) or LP-182 at 400 mg kg^−1 (n = 4) daily for 10 d, followed by an 8 d rest period, then underwent necropsy for hematological, histological, and pathological evaluation by the University of Michigan Unit for Laboratory Animal Medicine In Vivo Animal Core. Untreated animals (n = 3) were also monitored during the study for non-compound related adverse findings (ie. gavage stress impacting weight gain, vehicle-related toxicity), however no findings were observed, thus main comparisons were made between vehicle and compound treated mice. […] Briefly, mice were euthanized by CO2 inhalation, then blood was collected by cardiac puncture and transferred into EDTA anticoagulant-containing tubes, followed by gross necropsy, then tissue harvest and fixation in 10% neutral buffered formalin at a 10:1 (v/v) ratio of fixative to tissue. Differential blood counts were generated from whole blood using a Hemavet 950 automated hematology analyzer (Drew Scientific), and tissues were processed for paraffin embedding using routine histological methods, then sectioned at 4 µm by rotary microtome and mounted on glass slides for hematoxylin and eosin (H&E) staining and evaluation by light microscopy at magnifications ranging from 10–40x. Data was generated from n ≥ 3 individual animals per grouping. Two animals in the vehicle treated group were excluded from blood count analysis due to insufficient sample collection and sample clotting, respectively.

[3] = healthy mice, oral 400 mg kg^−1 for 10 d, 8 d rest
[4] = individual animals, Supplementary Figure 8c
[5] = individual animals, Supplementary Figure 8c, in 10^3/µL (unit assumed)
[6] = individual animals, Supplementary Figure 8c, in % (unit assumed)
[7] = individual animals, Supplementary Figure 8c, in fL (unit assumed)
[8] = individual animals, Supplementary Figure 8c, in g/dL (unit assumed)

SMILES: O=C(NOCCOCCOCCOCCC(=O)N1CCN(c2cnc3ccc(-c4cnc(Cl)c(NS(=O)(=O)c5ccc(F)cc5)c4)cc3n2)CC1)c1ccc(F)c(F)c1Nc1ccc(I)cc1F [LP-182, N-(2-(2-(2-(3-(4-(7-(6-chloro-5-((4-fluorophenyl)sulfonamido)pyridin-3-yl)quinoxalin-2-yl)piperazin-1-yl)-3-oxopropoxy)ethoxy)ethoxy)ethoxy)-3,4-difluoro-2-((2-fluoro-4-iodophenyl)amino)benzamide]
- tibia bone marrow ADC change [1]: variable, spatially-dependent increase in ADC values
- Relative organ/body weight, Brain ([2]; Brain, individual animals, Supplementary Figure 8b): 1.539% and 1.685% and 1.7935% and 1.6704%
- Relative organ/body weight, Left kidney ([2]; Left kidney, individual animals, Supplementary Figure 8b): 0.6549% and 0.6559% and 0.6824% and 0.6502%
- Relative organ/body weight, Liver ([2]; Liver, individual animals, Supplementary Figure 8b): 5.775% and 6.631% and 5.788% and 5.583%
- Relative organ/body weight, Right kidney ([2]; Right kidney, individual animals, Supplementary Figure 8b): 0.662% and 0.6523% and 0.6788% and 0.6203%
- Relative organ/body weight, Spleen ([2]; Spleen, individual animals, Supplementary Figure 8b): 0.5915% and 0.4229% and 0.6217% and 0.4223%
- Relative organ/body weight, Thymus ([2]; Thymus, individual animals, Supplementary Figure 8b): 0.2641% and 0.1505% and 0.283% and 0.2317%
- Body weight ([2]; Time 1 d, individual animals): 24 g and 26 g and 25 g (2×)
- Body weight ([2]; Time 5 d, individual animals): 26 g (3×) and 27 g
- Body weight ([2]; Time 10 d, individual animals): 26 g (3×) and 27 g
- Body weight ([2]; Time 15 d, individual animals): 27 g (3×) and 30 g
- Body weight ([2]; Time 18 d, individual animals): 28.4 g and 27.9 g and 27.99 g and 26.76 g
- adverse effects, body weight, complete blood counts [2, 3]: no adverse effects, change in body weight, or change in complete blood counts
- necropsy histopathology [2, 3]: no histopathological abnormalities
- tolerability [2, 3]: well tolerated with no observed toxicity
- Hematology Analysis BA [2, 4]: 0.03 and 0.02 and 0.04 and 0.06
- Hematology Analysis EO [2, 4]: 0.24 and 0.11 and 0.2 and 0.16
- Hematology Analysis WBC [2, 4]: 7.06 and 10.06 and 5.16 (2×)
- Hematology Analysis LY [2, 5]: 4.99 and 6.24 and 3.4 and 3.44
- Hematology Analysis MO [2, 5]: 0.24 and 0.93 and 0.14 and 0.21
- Hematology Analysis NE [2, 5]: 1.57 and 2.76 and 1.38 and 1.3
- Hematology Analysis PLT [2, 5]: 721 and 1152 and 272 and 338
- Hematology Analysis RBC ([2]; individual animals, Supplementary Figure 8c, in 10^6/µL (unit assumed)): 8.48 and 9.05 and 9.08 and 9.55
- Hematology Analysis HCT [2, 6]: 49.5 and 47.2 and 51.7 and 49.4
- Hematology Analysis RDW [2, 6]: 16.8 and 16.2 and 17.4 and 15.3
- Hematology Analysis MCV [2, 7]: 58.4 and 52.2 and 56.9 and 51.7
- Hematology Analysis MPV [2, 7]: 5.2 and 4.6 and 5.8 and 5.6
- Hematology Analysis HB [2, 8]: 13.7 and 13.8 and 15 and 14.2
- Hematology Analysis MCHC [2, 8]: 27.7 and 29.2 and 29 and 28.7
- Hematology Analysis MCH ([2]; individual animals, Supplementary Figure 8c, in pg (unit assumed)): 16.2 and 15.2 and 16.5 and 14.9
